Read-outs that look alike come from different tables or passages of the source.
Assays:
[1] = tested on: IL-1β production in PMA-differentiated THP-1 cells; test: Measurement of IL-1β production in PMA-differentiated THP-1 cells (ELISA, 4 hours); type: cell-based, human; conditions: assayed using one or more of the described procedures, read-out: NLRP3 hIL1B IC50
Summary of the method: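 THP-1 cells differentiated with PMA (10 μg/ml, 24 h), replated at 1×10^6 cells/ml in RPMI with 2% FBS and exposed to compounds (e.g. 0.1–100 μM, 1% DMSO final) for 4 hours. IL-1β in cell-free supernatant quantified by ELISA against vehicle control.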

human TLR7 = biological target: T1, human TLR7 (Homo sapiens, UniProt Q9NYK1); test: In vitro human TLR7 binding reporter assay (HEK-Blue, NF-kB/AP1-inducible SEAP); type: cell-based; conditions: HEK-Blue human TLR7 SEAP reporter cells; activity range classes; read-out: TLR7 Agonist EC50
T1 construct: host or cells: human HEK-Blue cells (HEK293-derived) co-expressing TLR7 and an NF-kB/AP1-inducible SEAP reporter
T1 sequence (Q9NYK1 27-1049): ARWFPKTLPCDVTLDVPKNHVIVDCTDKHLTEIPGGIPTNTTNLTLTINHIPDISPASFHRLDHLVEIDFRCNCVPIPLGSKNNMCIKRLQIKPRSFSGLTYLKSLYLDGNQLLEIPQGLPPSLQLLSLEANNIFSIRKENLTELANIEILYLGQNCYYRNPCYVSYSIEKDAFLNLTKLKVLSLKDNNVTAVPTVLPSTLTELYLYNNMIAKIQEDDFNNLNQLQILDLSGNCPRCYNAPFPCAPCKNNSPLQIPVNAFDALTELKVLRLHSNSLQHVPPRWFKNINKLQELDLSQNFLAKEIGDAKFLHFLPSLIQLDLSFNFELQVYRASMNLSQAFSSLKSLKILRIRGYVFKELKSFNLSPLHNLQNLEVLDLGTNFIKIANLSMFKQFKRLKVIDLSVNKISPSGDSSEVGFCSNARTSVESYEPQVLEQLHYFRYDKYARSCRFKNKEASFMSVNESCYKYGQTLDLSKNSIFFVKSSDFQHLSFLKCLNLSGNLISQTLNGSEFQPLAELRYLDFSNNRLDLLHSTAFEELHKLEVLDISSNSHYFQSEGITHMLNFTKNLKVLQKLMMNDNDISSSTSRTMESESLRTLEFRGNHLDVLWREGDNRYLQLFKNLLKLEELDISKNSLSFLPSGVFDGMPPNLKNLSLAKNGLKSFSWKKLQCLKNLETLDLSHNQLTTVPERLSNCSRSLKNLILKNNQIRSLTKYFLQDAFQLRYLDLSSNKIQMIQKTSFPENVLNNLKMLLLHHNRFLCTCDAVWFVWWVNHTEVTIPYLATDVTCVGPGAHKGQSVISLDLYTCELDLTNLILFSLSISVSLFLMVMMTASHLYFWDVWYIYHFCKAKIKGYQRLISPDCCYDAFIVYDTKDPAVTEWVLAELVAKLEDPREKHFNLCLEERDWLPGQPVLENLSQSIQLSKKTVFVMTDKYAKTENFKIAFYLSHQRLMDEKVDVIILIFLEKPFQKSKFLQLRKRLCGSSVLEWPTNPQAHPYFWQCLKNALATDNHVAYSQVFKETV
Summary of the method: (§1)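 Cells are seeded and grown for 24 h. Compounds or DMSO are then added and incubated 18 h at 37 °C. Quanti-Blue is added, and SEAP is read after thirty minutes. EC50 values are normalized, with RLU from 50 μM reference standard setting 100% Ymax.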

human TLR8 = biological target: T2, human TLR8 (Homo sapiens, UniProt Q9NR97); test: In vitro human TLR8 binding reporter assay (HEK-Blue, NF-kB/AP1-inducible SEAP); type: cell-based; conditions: HEK-Blue human TLR8 SEAP reporter cells; activity range classes; read-out: TLR8 Agonist EC50
T2 construct: host or cells: human HEK-Blue cells (HEK293-derived) co-expressing TLR8 and an NF-kB/AP1-inducible SEAP reporter
T2 sequence (Q9NR97 27-1041): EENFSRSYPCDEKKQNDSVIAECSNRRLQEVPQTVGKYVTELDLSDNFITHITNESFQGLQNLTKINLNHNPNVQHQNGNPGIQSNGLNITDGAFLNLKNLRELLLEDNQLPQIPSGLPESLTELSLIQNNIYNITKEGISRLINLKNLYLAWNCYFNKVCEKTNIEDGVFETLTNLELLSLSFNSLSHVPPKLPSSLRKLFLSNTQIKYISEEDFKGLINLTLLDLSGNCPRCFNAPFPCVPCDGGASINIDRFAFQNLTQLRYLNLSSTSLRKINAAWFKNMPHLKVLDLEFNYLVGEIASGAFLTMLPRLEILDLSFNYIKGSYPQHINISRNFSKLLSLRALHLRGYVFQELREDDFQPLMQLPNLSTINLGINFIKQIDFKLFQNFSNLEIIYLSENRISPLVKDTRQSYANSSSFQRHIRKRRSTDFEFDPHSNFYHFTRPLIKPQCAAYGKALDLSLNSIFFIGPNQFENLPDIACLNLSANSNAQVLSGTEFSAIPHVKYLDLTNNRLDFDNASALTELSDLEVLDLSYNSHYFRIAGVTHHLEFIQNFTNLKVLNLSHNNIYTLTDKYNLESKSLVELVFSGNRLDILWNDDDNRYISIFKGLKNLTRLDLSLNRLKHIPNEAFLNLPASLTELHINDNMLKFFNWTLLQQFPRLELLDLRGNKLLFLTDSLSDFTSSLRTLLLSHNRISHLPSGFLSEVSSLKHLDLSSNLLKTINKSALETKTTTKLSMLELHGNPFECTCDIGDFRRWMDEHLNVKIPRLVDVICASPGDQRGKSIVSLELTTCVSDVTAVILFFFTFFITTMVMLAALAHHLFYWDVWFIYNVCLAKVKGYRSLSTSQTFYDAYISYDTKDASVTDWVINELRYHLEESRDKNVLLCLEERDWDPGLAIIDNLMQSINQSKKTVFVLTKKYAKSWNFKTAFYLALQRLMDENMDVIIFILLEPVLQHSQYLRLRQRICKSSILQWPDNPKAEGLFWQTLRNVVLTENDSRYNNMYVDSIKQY
Summary of the method: as §1

[2] = Homo sapiens, THP-1, human IL-1β production

Compound	IC50 [1, 2]	EC50 (human TLR7)	EC50 (human TLR8)	IC50 ([1]; human IL-1β production)
N#CCCCNc1cc(N)nc2cc(-c3ccn[nH]3)ccc12 [Compound 222]	0.06 µM	> 100 µM	> 100 µM	
CC(C)(CNc1cc(N)nc2cc(-c3ccn[nH]3)ccc12)S(C)(=O)=O [Compound 223]	1.35 µM	> 100 µM	> 100 µM	
Nc1cc(NCCc2ncn[nH]2)c2ccc(-c3ccn[nH]3)cc2n1 [Compound 224]	0.22 µM	> 100 µM	> 100 µM	
Nc1cc(NCCc2cnc[nH]2)c2ccc(-c3ccn[nH]3)cc2n1 [Compound 225]	0.13 µM	> 100 µM	> 100 µM	
Nc1cc(NCc2c[nH]nn2)c2ccc(-c3ccn[nH]3)cc2n1 [Compound 226]	0.73 µM	> 100 µM	> 100 µM	
Nc1cc(NCc2nc[nH]n2)c2ccc(-c3ccn[nH]3)cc2n1 [Compound 227]	0.33 µM	> 100 µM	> 100 µM	
Nc1cc(NCc2cn[nH]c2)c2ccc(-c3ccn[nH]3)cc2n1 [Compound 228]	0.16 µM	> 100 µM	> 100 µM	
Cn1ccc(CNc2cc(N)nc3cc(-c4ccn[nH]4)ccc23)n1 [Compound 229]	0.09 µM	> 100 µM	> 100 µM	
Nc1cc(NCc2cnco2)c2ccc(-c3ccn[nH]3)cc2n1 [Compound 230]	0.54 µM	> 100 µM	> 100 µM	
Nc1cc(NCCCn2cncn2)c2ccc(-c3ccn[nH]3)cc2n1 [Compound 231]	1.27 µM	> 100 µM	> 100 µM	
Nc1cc(N[C@@H]2CCC[C@@H]2O)c2ccc(-c3ccn[nH]3)cc2n1 [Compound 232]	0.23 µM	> 100 µM	> 100 µM	
Nc1cc(N[C@H]2C[C@H](O)C2)c2ccc(-c3ccn[nH]3)cc2n1 [Compound 233]	0.09 µM	> 100 µM	> 100 µM	
Nc1cc(N[C@H]2C[C@@H](O)C2)c2ccc(-c3ccn[nH]3)cc2n1 [Compound 234]	0.23 µM	> 100 µM	> 100 µM	
Nc1cc(N[C@H]2CCC[C@H]2O)c2ccc(-c3ccn[nH]3)cc2n1 [Compound 235]	0.86 µM	> 100 µM	> 100 µM	
Cc1cn(CCNc2cc(N)nc3cc(-c4ccn[nH]4)ccc23)nn1 [Compound 236]	2.65 µM	> 100 µM	> 100 µM	
Cc1nc[nH]c1CNc1cc(N)nc2cc(-c3ccn[nH]3)ccc12 [Compound 237]	2.57 µM	> 100 µM	> 100 µM	
Nc1cc(NCCCc2cccnc2)c2ccc(-c3ccn[nH]3)cc2n1 [Compound 238]	1.49 µM	> 100 µM	> 100 µM	
Cc1ncsc1CCNc1cc(N)nc2cc(-c3ccn[nH]3)ccc12 [Compound 239]	4.83 µM	> 100 µM	> 100 µM	
Nc1cc(NCc2ncc[nH]2)c2ccc(-c3ccn[nH]3)cc2n1 [Compound 240]	0.24 µM	> 100 µM	> 100 µM	
Nc1cc(NCCCn2ccnc2)c2ccc(-c3ccn[nH]3)cc2n1 [Compound 241]	2.25 µM	> 100 µM	> 100 µM	
Cn1nccc1CNc1cc(N)nc2cc(-c3ccn[nH]3)ccc12 [Compound 242]	2.35 µM	> 100 µM	> 100 µM	
Cn1cnc(CNc2cc(N)nc3cc(-c4ccn[nH]4)ccc23)c1 [Compound 243]	1.02 µM	> 100 µM	> 100 µM	
Nc1cc(NCc2cncs2)c2ccc(-c3ccn[nH]3)cc2n1 [Compound 244]	0.35 µM	> 100 µM	> 100 µM	
Nc1cc(N[C@H]2CC[C@@H](O)C2)c2ccc(-c3ccn[nH]3)cc2n1 [Compound 245]	1.34 µM	> 100 µM	> 100 µM	
Nc1cc(N[C@H]2CC[C@H](O)C2)c2ccc(-c3ccn[nH]3)cc2n1 [Compound 246]	0.17 µM	> 100 µM	> 100 µM	
Nc1cc(N[C@@H]2CC[C@H](O)C2)c2ccc(-c3ccn[nH]3)cc2n1 [Compound 247]	0.48 µM	> 100 µM	> 100 µM	
Nc1cc(N[C@@H]2CC[C@@H](O)C2)c2ccc(-c3ccn[nH]3)cc2n1 [Compound 248]	0.33 µM	> 100 µM	> 100 µM	
Nc1cc(NCc2ncco2)c2ccc(-c3ccn[nH]3)cc2n1 [Compound 249]	0.05 µM	> 100 µM	> 100 µM	
Nc1cc(N[C@H]2CCCC[C@H]2O)c2ccc(-c3ccn[nH]3)cc2n1 [Compound 250]		> 100 µM	> 100 µM	1.72 µM
Nc1cc(N[C@@H]2CCCC[C@@H]2O)c2ccc(-c3ccn[nH]3)cc2n1 [Compound 251]	0.37 µM	> 100 µM	> 100 µM	
